This is an account of results in patent US11833159B2, “Non-hormonal steroid modulators of NF-kB for treatment of disease” (ReveraGen BioPharma, Inc., priority 2008, dated 2023).

Test [1] has as its system mdx mice. Put plainly: mdx mouse model: histological evaluation (H&E) of gastrocnemius muscle. It is filed as in vivo. To be noted: 3 months per oral in feed, Examples 20 and 40 mg/kg/day; for Inflammation of skeletal muscle (H&E histology): in comparison to untreated and prednisolone treated mdx mice; for Degeneration of skeletal muscle (H&E histology) / Regeneration / regenerating muscle fibers (H&E histology): prednisolone 5 mg/kg/day. The method, then:
(§1) Separate groups (n=12-14) of mdx mice were treated with prednisolone (5 mg/kg/day; per oral in feed), Example 1 (20 and 40 mg/kg/day; per oral in feed) and Example 2 (20 and 40 mg/kg/day; per oral in feed) for 3 months. All mice underwent 30 min biweekly treadmill exercise during the treatment duration to unmask the mild disease phenotype of mdx mouse model.
Hematoxylin and Eosin staining of gastrocnemius muscle of untreated mdx mice show significant degeneration and inflammation.

Test [2] can be described thus: In vivo mdx mouse model of dystrophy: body weight and muscle mass. Particulars: 5 mg/kg/day per oral in feed, at 33.8 weeks age, P<0.05. On the procedure:
as §1

The subject of test [3] is mdx mice. Put plainly: mdx mouse model: in vitro force contractions of EDL muscle. It is filed as in vivo. To be noted: 5 mg/kg/day per oral in feed. On the procedure: as §1
The distal tendon of the extensor digitorum longus (EDL) muscle was tied securely to the lever arm of a servomotor/force transducer (model 305B, Aurora Scientific, Richmond Hill, ON, Canada) and the proximal tendon to a tissue clamp. Muscles were stimulated between two platinum electrodes. […] The muscle length was then measured with calipers and after removal of the muscle from the bath the mass of the muscle was determined. For each muscle, the optimum fiber length (Lf) was calculated by multiplying Lo by a previously determined Lf/Lo ratio of 0.45. Total muscle fiber cross-sectional area was determined by dividing the wet mass by the product of Lf and the density of mammalian skeletal muscle (1.06 mg/mm^3). Maximum isometric specific force (sPo) was determined by dividing Po by the total muscle fiber cross-sectional area.

In the case of `C[C@]12CCC(=O)C=C1CCC1C2=CC[C@@]2(C)C1CC[C@]2(O)C(=O)CO` (stereo partly drawn) [Example 1, (10S,13S,17R)-17-hydroxy-17-(2-hydroxyacetyl)-10,13-dimethyl-6,7,8,10,12,13,14,15,16,17-decahydro-1H-cyclopenta[a]phenanthren-3(2H)-one], in the test on mdx mice [1], the “Inflammation of skeletal muscle (H&E histology)” value is “significant decrease”, the “Degeneration of skeletal muscle (H&E histology)” value (“Degeneration … (H&E histology)” below) is on record as “significant decrease” and the “Regeneration / regenerating muscle fibers (H&E histology)” value is “increase in regenerating muscle fibers”.
Take `C[C@]12C=CC(=O)C=C1CC[C@@H]1[C@@H]2[C@@H](O)C[C@@]2(C)[C@H]1CC[C@]2(O)C(=O)CO` [prednisolone, reference compound]: the “Body weight versus untreated mice” value in test [2] is “significantly lower body weight”. Besides, the “Specific force of EDL muscle, difference to untreated group” value with mdx mice [3] is listed as “no statistically significant (P<0.05) difference”. In the test on mdx mice [1], the “Degeneration … (H&E histology)” value was “appeared to increase degeneration” and the “Regeneration / regenerating muscle fibers (H&E histology)” value is reported as “decrease in regeneration”.
As for `C[C@]12C=CC(=O)C=C1CCC1C2=CC[C@@]2(C)C1CC[C@]2(O)C(=O)CO` (stereo partly drawn) [Example 2, (10S,13S,17R)-17-hydroxy-17-(2-hydroxyacetyl)-10,13-dimethyl-6,7,8,10,12,13,14,15,16,17-decahydro-3H-cyclopenta[a]phenanthren-3-one], in the test on mdx mice [1], the “Inflammation of skeletal muscle (H&E histology)” value is reported as “significant decrease”, the “Degeneration … (H&E histology)” value is listed as “significant decrease” and the “Regeneration / regenerating muscle fibers (H&E histology)” value is “increase in regenerating muscle fibers”.
